From patent US11628169B2, “Therapeutic drug for motor complications in Parkinson's disease” (Sumitomo Pharma Co., Ltd., priority 2020, dated 2023) come the findings set out here.

The experiment relates to PD-LID rat model. The experiment in a line: Dyskinesia-like symptom (AIMs) score in PD-LID rat model. The following applies: continuous subcutaneous infusion 60 mg/mL (mean 0.78 mg/kg/hour); day 0 of implanting the pump; vs solvent group. The class given is in vivo. The protocol: To make a PD-LID rat model, a mixture of levodopa methyl ester hydrochloride (6 mg/kg; Sigma-Aldrich) dissolved in saline and benserazide hydrochloride (15 mg/kg; Sigma-Aldrich) (hereinafter, also referred to as “levodopa containing solution”) was intraperitoneally administered once daily to 6-OHDA-lesioned rats. The levodopa containing solution was repeatedly administered for 3 weeks or longer to observe and evaluate the behavior. The behavior was observed and evaluated in a transparent acrylic cage for 1 minute every 20 minutes after 20 minutes from the intraperitoneal administration of the levodopa containing solution, up until after 3 hours from administration. […] The sum of the scores for Limb AIMs, Axial AIMs, and Orolingual AIMs in 3 hours was used as the total dyskinesia-like symptom (AIMs) score. Individuals with a total AIMs score of less than 10 were excluded from the test as not manifesting a dyskinesia-like symptom. The behavior was observed and evaluated before the drug evaluation date. The rats were assigned to each dosing group by using the 3 hour total dyskinesia-like symptom (AIMs) score, Locomotive behavior score, and rat body weight as indicators, which were used for evaluation of drugs. […]
After 4 hours from application, a levodopa containing solution was intraperitoneally administered to observe and evaluate the behavior. Individuals with 50% or more of the tape agent coming off during the test were excluded from analysis. […]
As in Example 2, a levodopa containing solution was repeated administered to 6-0HDA-lesioned rats for 3 weeks or longer to observe and evaluate the behavior. The behavior was observed and evaluated before the drug evaluation date. The rats were assigned to each dosing group by using the 3 hour dyskinesia-like symptom (AIMs) score, Locomotive behavior score, and rat body weight as indicators, which were used for evaluation of drugs. However, individuals with a total AIMs score of less than 10 were excluded from the test as lacking manifestation of a dyskinesia-like symptom. Individuals with a body weight deviating 10% or more from the mean body weight were also excluded from the test to minimize variation in the dosage for each individual. […]
After 4 hours, a levodopa containing solution was administered to observe and evaluate the behavior. […]
The prepared solution was used after injection into an ALZET® Osmotic Pump MODEL 2ML2 (4.53 μL/hour; DURECT) for releasing a drug solution at a stable rate for 2 weeks. […]
The behavior was observed and evaluated using the same method as Example 2. […] After 5 minutes, a levodopa containing solution was intraperitoneally administered, and the behavior was observed and evaluated. The results in the drawings are indicated in terms of mean value […] standard error. The test results were statistically analyzed by comparison with the solvent administration group by Steel test using the total dyskinesia-like symptom (AIMs) score in 3 hours and total dyskinesia-like symptom score in 100 to 180 minutes as parameters. * indicates p<0.05, meaning that there is a significant difference.
The behavior was observed and evaluated using the same method in Example 2. […] The test results were statistically analyzed by comparison with the solvent administration group by Steel test by using the total dyskinesia-like symptom (AIMs) score in 3 hours and total dyskinesia-like symptom score in 100 to 180 minutes as parameters.

In the case of tandospirone citrate, the “dyskinesia-like symptoms (total AIMs score in 3 hours)” value is “Significant improvement in dyskinesia-like symptoms”.
